Laboratory results published in US20260183297A1, “SELECTION OF PATIENTS FOR THE TREATMENT OF FADS1-MEDIATED DISEASES OR DISORDERS USING FADS-1 INHIBITORS” (AMGEN INC., priority 2022, published 2026).
Marks after values point to notes of the source that are not given here.

Test: Fatty acid concentration and composition of plasma lipid subfractions (GC) of Compound A-treated DIO mice
Type: in vivo, mouse
Conditions: DIO mouse plasma, 30 mg/kg, GC
Experimental: FIG. 16(b) provides fatty acid composition of total plasma and each of the 4 plasma lipid subfractions of vehicle treated (WT) and 30 mg/kg Compound A-treated WT DIO mice (WT+A). (a-b) n=3 samples per group (each sample pooled from 2 mice). (a) Data are shown as minimum to maximum. t-test *P<0.05, **P<0.01, ***P<0.001.

[1] = Phospholipids, mean % composition
[2] = Total lipids, mean % composition
[3] = Triglycerides, mean % composition

For `COc1ccn2c(=O)c(-c3cnn(CC(F)(F)C(F)(F)F)c3)c(C(F)(F)F)nc2c1` [Compound A, 8-methoxy-3-(1-(2,2,3,3,3-pentafluoropropyl)-1H-pyrazol-4-yl)-2-(trifluoromethyl)-4H-pyrido[1,2-a]pyrimidin-4-one], the “C16:1n7t composition, Phospholipids” value [1] was 0.05%, the “C18:0 composition, Phospholipids” value [1] was 14.4*** % and the “C18:1n9 composition, Phospholipids” value [1] was 12.3** %. For the same compound, the “C18:1t composition, Phospholipids” value [1] was 0.18%, the “C18:2n6 composition, Phospholipids” value [1] was 19.0% and the “C18:2n6t composition, Phospholipids” value [1] was 0.22** %. For the same compound, the “C18:3n3 composition, Phospholipids” value [1] was 0.05%, the “C18:3n6 composition, Phospholipids” value [1] was 0.2* % and the “C20:0 composition, Phospholipids” value [1] was 0.07* %. For the same compound, the “C20:1n9 composition, Phospholipids” value [1] was 0.28%, the “C20:2n6 composition, Phospholipids” value [1] was 0.43* % and the “C20:3n6 composition, Phospholipids” value [1] was 18.2*** %. For the same compound, the “C20:4n6 composition, Phospholipids” value [1] was 1.49*** %, the “C20:5n3 composition, Phospholipids” value [1] was 0.06* % and the “C22:0 composition, Phospholipids” value [1] was 0.08%. The “C22:4n6 composition, Phospholipids” value [1] was 0.10*** %, the “C22:5n3 composition, Phospholipids” value [1] was 0.61% and the “C22:5n6 composition, Phospholipids” value [1] was 0.09** %. The “C22:6n3 composition, Phospholipids” value [1] was 3.33*** %, the “C24:0 composition, Phospholipids” value [1] was 0.04% and the “C24:1n9 composition, Phospholipids” value [1] was 0.16%. The “C14:0 concentration, Total” value (Total lipids, mean) was 7.7 µg/mL, the “C16:0 concentration, Total” value (Total lipids, mean) was 635 µg/mL and the “C16:1n7 concentration, Total” value (Total lipids, mean) was 41.4 µg/mL. The “C18:0 concentration, Total” value (Total lipids, mean) was 285** μg mL^−1, the “C18:1n9 concentration, Total” value (Total lipids, mean) was 478 µg/mL and the “C18:1t concentration, Total” value (Total lipids, mean) was 3.6 µg/mL. For the same compound, the “C18:2n6 concentration, Total” value (Total lipids, mean) was 870 µg/mL, the “C18:2n6t concentration, Total” value (Total lipids, mean) was 6.0 µg/mL and the “C18:3n3 concentration, Total” value (Total lipids, mean) was 5.9** μg mL^−1. The “C18:3n6 concentration, Total” value (Total lipids, mean) was 23.3** μg mL^−1, the “C20:0 concentration, Total” value (Total lipids, mean) was 2.3** μg mL^−1 and the “C20:1n9 concentration, Total” value (Total lipids, mean) was 8.4 µg/mL. For the same compound, the “C20:3n6 concentration, Total” value (Total lipids, mean) was 465*** μg mL^−1, the “C20:4n6 concentration, Total” value (Total lipids, mean) was 92.3** μg mL^−1 and the “C20:5n3 concentration, Total” value (Total lipids, mean) was 2.7** μg mL^−1. The “C22:0 concentration, Total” value (Total lipids, mean) was 3.3** μg mL^−1, the “C22:4n6 concentration, Total” value (Total lipids, mean) was 2.1*** μg mL^−1 and the “C22:5n3 concentration, Total” value (Total lipids, mean) was 2.8*** μg mL^−1. The “C22:5n6 concentration, Total” value (Total lipids, mean) was 2.4*** μg mL^−1, the “C22:6n3 concentration, Total” value (Total lipids, mean) was 98.5** μg mL^−1 and the “C24:1n9 concentration, Total” value (Total lipids, mean) was 6.9 µg/mL. The “Total fatty acids concentration, Total” value (Total lipids, mean) was 3058* μg mL^−1, the “C14:0 composition, Total” value [2] was 0.25% and the “C16:0 composition, Total” value [2] was 20.8%. For the same compound, the “C16:1n7 composition, Total” value [2] was 1.35%, the “C16:1n7t composition, Total” value [2] was 0.1% and the “C18:0 composition, Total” value [2] was 9.3%. For the same compound, the “C18:1n9 composition, Total” value [2] was 15.7%, the “C18:1t composition, Total” value [2] was 0.12% and the “C18:2n6 composition, Total” value [2] was 28.5%. The “C18:2n6t composition, Total” value [2] was 0.2%, the “C18:3n3 composition, Total” value [2] was 0.19% and the “C18:3n6 composition, Total” value [2] was 0.76%. For the same compound, the “C20:0 composition, Total” value [2] was 0.08%, the “C20:1n9 composition, Total” value [2] was 0.27% and the “C20:2n6 composition, Total” value [2] was 0.32%. For the same compound, the “C20:3n6 composition, Total” value [2] was 15.2%, the “C20:4n6 composition, Total” value [2] was 3.01% and the “C20:5n3 composition, Total” value [2] was 0.09*** %. For the same compound, the “C22:0 composition, Total” value [2] was 0.11%, the “C22:4n6 composition, Total” value [2] was 0.07*** % and the “C22:5n3 composition, Total” value [2] was 0.09*** %. For the same compound, the “C22:5n6 composition, Total” value [2] was 0.08*** %, the “C22:6n3 composition, Total” value [2] was 3.22% and the “C24:0 composition, Total” value [2] was 0.06%. For the same compound, the “C24:1n9 composition, Total” value [2] was 0.23** %, the “C14:0 concentration, Triglycerides” value (Triglycerides, mean) was 26.7 µg/mL and the “C16:0 concentration, Triglycerides” value (Triglycerides, mean) was 135 µg/mL. The “C16:1n7 concentration, Triglycerides” value (Triglycerides, mean) was 6.2 µg/mL, the “C16:1n7t concentration, Triglycerides” value (Triglycerides, mean) was 0.7 µg/mL and the “C18:0 concentration, Triglycerides” value (Triglycerides, mean) was 80.4 µg/mL. The “C18:1n9 concentration, Triglycerides” value (Triglycerides, mean) was 161* μg mL^−1, the “C18:1t concentration, Triglycerides” value (Triglycerides, mean) was 6.1 µg/mL and the “C18:2n6 concentration, Triglycerides” value (Triglycerides, mean) was 42.6** μg mL^−1. The “C18:2n6t concentration, Triglycerides” value (Triglycerides, mean) was 9.0 µg/mL, the “C18:3n3 concentration, Triglycerides” value (Triglycerides, mean) was 1.8 µg/mL and the “C18:3n6 concentration, Triglycerides” value (Triglycerides, mean) was 0.7 µg/mL. For the same compound, the “C20:0 concentration, Triglycerides” value (Triglycerides, mean) was 1.6 µg/mL, the “C20:1n9 concentration, Triglycerides” value (Triglycerides, mean) was 5.6* μg mL^−1 and the “C20:2n6 concentration, Triglycerides” value (Triglycerides, mean) was 1.7 µg/mL. The “C20:3n6 concentration, Triglycerides” value (Triglycerides, mean) was 8.3 µg/mL, the “C20:4n6 concentration, Triglycerides” value (Triglycerides, mean) was 2.5*** μg mL^−1 and the “C20:5n3 concentration, Triglycerides” value (Triglycerides, mean) was 3.7** μg mL^−1. For the same compound, the “C22:0 concentration, Triglycerides” value (Triglycerides, mean) was 3.5 µg/mL, the “C22:4n6 concentration, Triglycerides” value (Triglycerides, mean) was 2.5* μg mL^−1 and the “C22:5n3 concentration, Triglycerides” value (Triglycerides, mean) was 49.9* μg mL^−1. For the same compound, the “C22:5n6 concentration, Triglycerides” value (Triglycerides, mean) was 2.5 µg/mL, the “C22:6n3 concentration, Triglycerides” value (Triglycerides, mean) was 0.6** μg mL^−1 and the “C24:0 concentration, Triglycerides” value (Triglycerides, mean) was 1.2 µg/mL. For the same compound, the “C24:1n9 concentration, Triglycerides” value (Triglycerides, mean) was 2.3 µg/mL, the “Total fatty acids concentration, Triglycerides” value (Triglycerides, mean) was 556* μg mL^−1 and the “C14:0 composition, Triglycerides” value [3] was 4.77* %. The “C16:0 composition, Triglycerides” value [3] was 24.2%, the “C16:1n7 composition, Triglycerides” value [3] was 1.10% and the “C16:1n7t composition, Triglycerides” value [3] was 0.12%. The “C18:0 composition, Triglycerides” value [3] was 14.5%, the “C18:1n9 composition, Triglycerides” value [3] was 29.0% and the “C18:1t composition, Triglycerides” value [3] was 1.09%. For the same compound, the “C18:2n6 composition, Triglycerides” value [3] was 7.68** %, the “C18:2n6t composition, Triglycerides” value [3] was 1.64* % and the “C18:3n3 composition, Triglycerides” value [3] was 0.33%. The “C18:3n6 composition, Triglycerides” value [3] was 0.13%, the “C20:0 composition, Triglycerides” value [3] was 0.28% and the “C20:1n9 composition, Triglycerides” value [3] was 1.01%. The “C20:2n6 composition, Triglycerides” value [3] was 0.31%, the “C20:3n6 composition, Triglycerides” value [3] was 1.5% and the “C20:4n6 composition, Triglycerides” value [3] was 0.46*** %. For the same compound, the “C20:5n3 composition, Triglycerides” value [3] was 0.67%, the “C22:0 composition, Triglycerides” value [3] was 0.63% and the “C22:4n6 composition, Triglycerides” value [3] was 0.45%. For the same compound, the “C22:5n3 composition, Triglycerides” value [3] was 8.98*** %, the “C22:5n6 composition, Triglycerides” value [3] was 0.45* % and the “C22:6n3 composition, Triglycerides” value [3] was 0.12*** %. For the same compound, the “C24:0 composition, Triglycerides” value [3] was 0.23%, the “C24:1n9 composition, Triglycerides” value [3] was 0.41% and the “EPA/AA, Cholesterol ester (Table 5.5)” value (ratio, Cholesterol ester) was 0.039*. The “EPA/AA, Cholesterol ester (Table 5.6)” value (ratio, Cholesterol ester) was 0.039*, the “EPA/AA, Free fatty acids (Table 5.5)” value (ratio, Free fatty acids) was 2.94* and the “EPA/AA, Free fatty acids (Table 5.6)” value (ratio, Free fatty acids) was 2.94*. For the same compound, the “EPA/AA, Phospholipids (Table 5.5)” value (ratio, Phospholipids) was 0.038*, the “EPA/AA, Phospholipids (Table 5.6)” value (ratio, Phospholipids) was 0.038 and the “EPA/AA, Total (Table 5.5)” value (ratio, Total lipids) was 0.030**. For the same compound, the “EPA/AA, Total (Table 5.6)” value (ratio, Total lipids) was 0.030**, the “EPA/AA, Triglycerides (Table 5.5)” value (ratio, Triglycerides) was 1.51** and the “EPA/AA, Triglycerides (Table 5.6)” value (ratio, Triglycerides) was 1.51**.
